Earlier results on three molecules are cited in patent US20130323323A1, “Therapeutic Method and Associated Compound for Augmenting the Liver's Metabolization of Oxygen-Modified Toxins” (priority 2012, published 2013).

Read-outs that look alike come from different tables or passages of the source.

For series [1] the following is noted: limited supply of oxygen to the liver.
Test in series [2]: not given
The source holds these as a separate data set.

The conditions of series [3]: pure oxygen via inhalation; rats, cats, and dogs.

In the case of `Cn1c(=O)c2c(ncn2C)n(C)c1=O` [Caffeine], the “time to peak plasma concentration” value (after ingestion) was 30 to 45 min. Moreover, the bioavailable (in vivo) was ~100%.
Turning to `CCO` [alcohol, Ethanol], the “rate at which alcohol is metabolized (plateau)” value in series [1] was “around 0.02 g alcohol/100 ml blood per hour”.
For `O=O` [oxygen], the “solubility of oxygen in water” value is 9 ppm in series [2] (5 degrees Celsius and 1 standard atmosphere); 6 ppm in series [2] (25 degrees Celsius and 1 standard atmosphere). In addition, in series [3], the “increase in the elimination rate of ethanol” value is “No measurable increase”.
